From US5179088A, “1-Carba(dethia)cephalosporin antibiotics” (Eli Lilly and Company, priority 1990, dated 1993)

Tests used:
Assay type in all cases: cell-based
Parameters in all cases: unit not given here
Staphylococcus Aureus = assay: in vitro antibacterial activity, agar dilution (Staphylococcus aureus)
Procedure: (§1) *minimum inhibitory concentrations were determined by the Agardilution

Staphylococcus Epi = assay: in vitro antibacterial activity, agar dilution (Staphylococcus epi)
Procedure: as §1

Streptococcus A = assay: in vitro antibacterial activity, agar dilution (Streptococcus A)
Procedure: as §1

Streptococcus pn = assay: in vitro antibacterial activity, agar dilution (Streptococcus pn); conditions: strain PARK
Procedure: as §1

Streptococcus D = assay: in vitro antibacterial activity, agar dilution (Streptococcus D)
Procedure: as §1

H. Influ. = assay: in vitro antibacterial activity, agar dilution (H. influ.)
Procedure: as §1

E. coli = assay: in vitro antibacterial activity, agar dilution (E. coli)
Procedure: as §1

Klebsiella = assay: in vitro antibacterial activity, agar dilution (Klebsiella)
Procedure: as §1

Enterbacter Aerogenes = assay: in vitro antibacterial activity, agar dilution (Enterobacter aerogenes)
Procedure: as §1

Enterbacter Cloacea = assay: in vitro antibacterial activity, agar dilution (Enterobacter cloacae)
Procedure: as §1

Salmonella = assay: in vitro antibacterial activity, agar dilution (Salmonella)
Procedure: as §1

Pseudomonas = assay: in vitro antibacterial activity, agar dilution (Pseudomonas)
Procedure: as §1

Serratia = assay: in vitro antibacterial activity, agar dilution (Serratia)
Procedure: as §1

Shig. sonn = assay: in vitro antibacterial activity, agar dilution (Shig. sonn)
Procedure: as §1

Proteus morg = assay: in vitro antibacterial activity, agar dilution (Proteus morg)
Procedure: as §1

Proteus incon = assay: in vitro antibacterial activity, agar dilution (Proteus incon)
Procedure: as §1

Proteus rett = assay: in vitro antibacterial activity, agar dilution (Proteus rett)
Procedure: as §1

Citro = assay: in vitro antibacterial activity, agar dilution (Citro)
Procedure: as §1

Acin = assay: in vitro antibacterial activity, agar dilution (Acin)
Procedure: as §1

`CO/N=C(\C(=O)N[C@@H]1C(=O)N2C(C(=O)O)=C(c3csc(-c4ccccc4)n3)CC[C@H]12)c1csc(N)n1` [Example 31, Sodium 7β-[(2-aminothiazol-4-yl)-Z-methoximinoacetylamino]-1-carba-(1-dethia)-3-[2-(2-phenyl)thiazol-4-yl]-3-cephem-4-carboxylate] was tested, and the minimum inhibitory concentration (Staphylococcus Aureus; strain S13E) was 128, the minimum inhibitory concentration (Staphylococcus Aureus; strain V41) was 2 and the minimum inhibitory concentration (Staphylococcus Aureus; strain X1.1) was 1. The minimum inhibitory concentration (Staphylococcus Aureus; strain X400) was > 128, the minimum inhibitory concentration (Staphylococcus Epi; strain 222) was 2 and the minimum inhibitory concentration (Staphylococcus Epi; strain 270) was 8. For the same compound, the minimum inhibitory concentration (Streptococcus A; strain C203) was “< .008”, the minimum inhibitory concentration (Streptococcus pn) was “< .008” and the minimum inhibitory concentration (Streptococcus D; strain 2041) was 4. For the same compound, the minimum inhibitory concentration (Streptococcus D; strain X66) was > 128, the minimum inhibitory concentration (H. Influ.; res, strain 76) was “.03” and the minimum inhibitory concentration (H. Influ.; sens, strain C.L.) was “.06”. The minimum inhibitory concentration (E. coli; strain EC14) was 1, the minimum inhibitory concentration (E. coli; strain N10) was 2 and the minimum inhibitory concentration (E. coli; strain TEM) was 1. The minimum inhibitory concentration (Klebsiella; strain KAE) was 1, the minimum inhibitory concentration (Klebsiella; strain X26) was “.015” and the minimum inhibitory concentration (Klebsiella; strain X68) was 1. For the same compound, the minimum inhibitory concentration (Enterbacter Aerogenes; strain C32) was 1, the minimum inhibitory concentration (Enterbacter Aerogenes; strain EB17) was 1 and the minimum inhibitory concentration (Enterbacter Cloacea; strain 265A) was 64. For the same compound, the minimum inhibitory concentration (Enterbacter Cloacea; strain EB5) was 1, the minimum inhibitory concentration (Salmonella; strain 1335) was 4 and the minimum inhibitory concentration (Salmonella; strain X514) was 2. The minimum inhibitory concentration (Pseudomonas; strain PS18) was > 128, the minimum inhibitory concentration (Pseudomonas; strain PS72) was > 128 and the minimum inhibitory concentration (Pseudomonas; strain X239) was > 128. The minimum inhibitory concentration (Pseudomonas; strain X528) was > 128, the minimum inhibitory concentration (Serratia; strain SE3) was 8 and the minimum inhibitory concentration (Serratia; strain X99) was 4. The minimum inhibitory concentration (Shig. sonn; strain N9) was 1, the minimum inhibitory concentration (Proteus morg; strain PR15) was 2 and the minimum inhibitory concentration (Proteus incon; strain PR33) was “.5”. For the same compound, the minimum inhibitory concentration (Proteus rett; strain C24) was “.25”, the minimum inhibitory concentration (Citro; strain CF17) was 4 and the minimum inhibitory concentration (Acin; strain AC12) was 128.
With `CO/N=C(\C(=O)N[C@@H]1C(=O)N2C(C(=O)O)=C(c3csc(-c4ccco4)n3)CC[C@H]12)c1csc(N)n1` [Example 32] the minimum inhibitory concentration (Staphylococcus Aureus; strain S13E) was 128, the minimum inhibitory concentration (Staphylococcus Aureus; strain S13E, retest) was 128 and the minimum inhibitory concentration (Staphylococcus Aureus; strain V41) was 8. It also gave a minimum inhibitory concentration (Staphylococcus Aureus; strain V41, retest) of 4, a minimum inhibitory concentration (Staphylococcus Aureus; strain X1.1) of 4 and a minimum inhibitory concentration (Staphylococcus Aureus; strain X1.1, retest) of 2. The minimum inhibitory concentration (Staphylococcus Aureus; strain X400) was > 128, the minimum inhibitory concentration (Staphylococcus Aureus; strain X400, retest) was > 128 and the minimum inhibitory concentration (Staphylococcus Epi; strain 222) was 4. It also gave a minimum inhibitory concentration (Staphylococcus Epi; strain 222, retest) of 4, a minimum inhibitory concentration (Staphylococcus Epi; strain 270) of 16 and a minimum inhibitory concentration (Staphylococcus Epi; strain 270, retest) of 8. For the same compound, the minimum inhibitory concentration (Streptococcus A; strain C203) was “.015”, the minimum inhibitory concentration (Streptococcus A; strain C203, retest) was “.015” and the minimum inhibitory concentration (Streptococcus pn) was “.03”. The minimum inhibitory concentration (Streptococcus pn; retest) was “.03”, the minimum inhibitory concentration (Streptococcus D; strain 2041) was 16 and the minimum inhibitory concentration (Streptococcus D; strain 2041, retest) was 16. For the same compound, the minimum inhibitory concentration (Streptococcus D; strain X66) was > 128, the minimum inhibitory concentration (Streptococcus D; strain X66, retest) was > 128 and the minimum inhibitory concentration (H. Influ.; res, strain 76) was “< .008”. For the same compound, the minimum inhibitory concentration (H. Influ.; res, strain 76, retest) was “.015”, the minimum inhibitory concentration (H. Influ.; sens, strain C.L.) was “.06” and the minimum inhibitory concentration (H. Influ.; sens, strain C.L., retest) was “.03”. The minimum inhibitory concentration (E. coli; strain EC14) was 1, the minimum inhibitory concentration (E. coli; strain EC14, retest) was “.5” and the minimum inhibitory concentration (E. coli; strain N10) was 1. The minimum inhibitory concentration (E. coli; strain N10, retest) was 1, the minimum inhibitory concentration (E. coli; strain TEM) was “< .008” and the minimum inhibitory concentration (E. coli; strain TEM, retest) was “.5”. It also gave a minimum inhibitory concentration (Klebsiella; strain KAE) of 1, a minimum inhibitory concentration (Klebsiella; strain KAE, retest) of 16 and a minimum inhibitory concentration (Klebsiella; strain X26) of 8. For the same compound, the minimum inhibitory concentration (Klebsiella; strain X26, retest) was “< .008”, the minimum inhibitory concentration (Klebsiella; strain X68) was 1 and the minimum inhibitory concentration (Klebsiella; strain X68, retest) was 1. For the same compound, the minimum inhibitory concentration (Enterbacter Aerogenes; strain C32) was 1, the minimum inhibitory concentration (Enterbacter Aerogenes; strain C32, retest) was “.5” and the minimum inhibitory concentration (Enterbacter Aerogenes; strain EB17) was 1. For the same compound, the minimum inhibitory concentration (Enterbacter Aerogenes; strain EB17, retest) was 1, the minimum inhibitory concentration (Enterbacter Cloacea; strain 265A) was 128 and the minimum inhibitory concentration (Enterbacter Cloacea; strain 265A, retest) was 128. For the same compound, the minimum inhibitory concentration (Enterbacter Cloacea; strain EB5) was 2, the minimum inhibitory concentration (Enterbacter Cloacea; strain EB5, retest) was 2 and the minimum inhibitory concentration (Salmonella; strain 1335) was 4. The minimum inhibitory concentration (Salmonella; strain 1335, retest) was 2, the minimum inhibitory concentration (Salmonella; strain X514) was 1 and the minimum inhibitory concentration (Salmonella; strain X514, retest) was 1. The minimum inhibitory concentration (Pseudomonas; strain PS18) was > 128, the minimum inhibitory concentration (Pseudomonas; strain PS18, retest) was > 128 and the minimum inhibitory concentration (Pseudomonas; strain PS72) was > 128. For the same compound, the minimum inhibitory concentration (Pseudomonas; strain PS72, retest) was > 128, the minimum inhibitory concentration (Pseudomonas; strain X239) was > 128 and the minimum inhibitory concentration (Pseudomonas; strain X239, retest) was > 128. For the same compound, the minimum inhibitory concentration (Pseudomonas; strain X528) was > 128, the minimum inhibitory concentration (Pseudomonas; strain X528, retest) was > 128 and the minimum inhibitory concentration (Serratia; strain SE3) was 16. The minimum inhibitory concentration (Serratia; strain SE3, retest) was 16, the minimum inhibitory concentration (Serratia; strain X99) was 14 and the minimum inhibitory concentration (Serratia; strain X99, retest) was 2. The minimum inhibitory concentration (Shig. sonn; strain N9) was 1, the minimum inhibitory concentration (Shig. sonn; strain N9, retest) was 1 and the minimum inhibitory concentration (Proteus morg; strain PR15) was 2. The minimum inhibitory concentration (Proteus morg; strain PR15, retest) was 2, the minimum inhibitory concentration (Proteus incon; strain PR33) was “.5” and the minimum inhibitory concentration (Proteus incon; strain PR33, retest) was “.25”. For the same compound, the minimum inhibitory concentration (Proteus rett; strain C24) was “.5”, the minimum inhibitory concentration (Proteus rett; strain C24, retest) was “.5” and the minimum inhibitory concentration (Citro; strain CF17) was “.5”. It also gave a minimum inhibitory concentration (Citro; strain CF17, retest) of 1, a minimum inhibitory concentration (Acin; strain AC12) of 128 and a minimum inhibitory concentration (Acin; strain AC12, retest) of 128.
For `CO/N=C(\C(=O)N[C@@H]1C(=O)N2C(C(=O)O)=C(c3csc(-c4ccc([N+](=O)[O-])cc4)n3)CC[C@H]12)c1csc(N)n1` [Example 35, Sodium 7β-[(2-aminothiazol-4-yl)-Z-methoximinoacetylamino]-1-carba-(1-dethia)-3-[2-(4-nitrophenyl)thiazol-4-yl]-3-cephem-4-carboxylate], the minimum inhibitory concentration (Staphylococcus Aureus; strain S13E) was 32, the minimum inhibitory concentration (Staphylococcus Aureus; strain V41) was 2 and the minimum inhibitory concentration (Staphylococcus Aureus; strain X1.1) was “.5”. The minimum inhibitory concentration (Staphylococcus Aureus; strain X400) was > 128, the minimum inhibitory concentration (Staphylococcus Epi; strain 222) was 2 and the minimum inhibitory concentration (Staphylococcus Epi; strain 270) was 4. For the same compound, the minimum inhibitory concentration (Streptococcus A; strain C203) was “< .008”, the minimum inhibitory concentration (Streptococcus pn) was “< .008” and the minimum inhibitory concentration (Streptococcus D; strain 2041) was 4. For the same compound, the minimum inhibitory concentration (Streptococcus D; strain X66) was > 128, the minimum inhibitory concentration (H. Influ.; res, strain 76) was “.015” and the minimum inhibitory concentration (H. Influ.; sens, strain C.L.) was “.03”. For the same compound, the minimum inhibitory concentration (E. coli; strain EC14) was “.5”, the minimum inhibitory concentration (E. coli; strain N10) was 1 and the minimum inhibitory concentration (E. coli; strain TEM) was “.5”. The minimum inhibitory concentration (Klebsiella; strain KAE) was “.5”, the minimum inhibitory concentration (Klebsiella; strain X26) was “< .008” and the minimum inhibitory concentration (Klebsiella; strain X68) was 1. For the same compound, the minimum inhibitory concentration (Enterbacter Aerogenes; strain C32) was “.5”, the minimum inhibitory concentration (Enterbacter Aerogenes; strain EB17) was 1 and the minimum inhibitory concentration (Enterbacter Cloacea; strain 265A) was 16. It also gave a minimum inhibitory concentration (Enterbacter Cloacea; strain EB5) of 1, a minimum inhibitory concentration (Salmonella; strain 1335) of 4 and a minimum inhibitory concentration (Salmonella; strain X514) of 1. For the same compound, the minimum inhibitory concentration (Serratia; strain SE3) was 4, the minimum inhibitory concentration (Serratia; strain X99) was 4 and the minimum inhibitory concentration (Shig. sonn; strain N9) was “.5”. The minimum inhibitory concentration (Proteus morg; strain PR15) was “.5”, the minimum inhibitory concentration (Proteus incon; strain PR33) was “.25” and the minimum inhibitory concentration (Proteus rett; strain C24) was “.25”. The minimum inhibitory concentration (Citro; strain CF17) was 2 and the minimum inhibitory concentration (Acin; strain AC12) was 64.
With `CO/N=C(\C(=O)N[C@@H]1C(=O)N2C(C(=O)O)=C(c3csc(-c4ncc([N+](=O)[O-])s4)n3)CC[C@H]12)c1csc(N)n1` [Example 36] the minimum inhibitory concentration (Staphylococcus Aureus; strain S13E) was 32, the minimum inhibitory concentration (Staphylococcus Aureus; strain V41) was 2 and the minimum inhibitory concentration (Staphylococcus Aureus; strain X1.1) was “.25”. The minimum inhibitory concentration (Staphylococcus Aureus; strain X400) was 16, the minimum inhibitory concentration (Staphylococcus Epi; strain 222) was 2 and the minimum inhibitory concentration (Staphylococcus Epi; strain 270) was 1. The minimum inhibitory concentration (Streptococcus A; strain C203) was “.015”, the minimum inhibitory concentration (Streptococcus pn) was “< .008” and the minimum inhibitory concentration (Streptococcus D; strain 2041) was 4. The minimum inhibitory concentration (Streptococcus D; strain X66) was 64, the minimum inhibitory concentration (H. Influ.; res, strain 76) was “< .008” and the minimum inhibitory concentration (H. Influ.; sens, strain C.L.) was “.015”. The minimum inhibitory concentration (E. coli; strain N10) was “.25”, the minimum inhibitory concentration (E. coli; strain TEM) was “.25” and the minimum inhibitory concentration (Klebsiella; strain KAE) was “.5”. For the same compound, the minimum inhibitory concentration (Klebsiella; strain X26) was “< .008”, the minimum inhibitory concentration (Klebsiella; strain X68) was “.25” and the minimum inhibitory concentration (Enterbacter Aerogenes; strain C32) was “.125”. The minimum inhibitory concentration (Enterbacter Aerogenes; strain EB17) was “.25”, the minimum inhibitory concentration (Enterbacter Cloacea; strain 265A) was “.5” and the minimum inhibitory concentration (Enterbacter Cloacea; strain EB5) was 1. For the same compound, the minimum inhibitory concentration (Salmonella; strain 1335) was “.5”, the minimum inhibitory concentration (Salmonella; strain X514) was “.25” and the minimum inhibitory concentration (Pseudomonas; strain PS18) was > 128. For the same compound, the minimum inhibitory concentration (Pseudomonas; strain PS72) was > 128, the minimum inhibitory concentration (Pseudomonas; strain X239) was 32 and the minimum inhibitory concentration (Pseudomonas; strain X528) was 32. The minimum inhibitory concentration (Serratia; strain SE3) was 4, the minimum inhibitory concentration (Serratia; strain X99) was 1 and the minimum inhibitory concentration (Shig. sonn; strain N9) was “.25”. The minimum inhibitory concentration (Proteus morg; strain PR15) was “.25”, the minimum inhibitory concentration (Proteus incon; strain PR33) was “.25” and the minimum inhibitory concentration (Proteus rett; strain C24) was “.06”. For the same compound, the minimum inhibitory concentration (Citro; strain CF17) was “.06” and the minimum inhibitory concentration (Acin; strain AC12) was 32.
